Reference: patent publication US12655116B2, “Substituted isophthalic acid diamides” (Bayer Aktiengesellschaft, priority 2020, dated 2026)

Assays:
ABUTH [1] = test: Pre-emergence herbicidal action against ABUTH; assay type: in vivo, Abutilon theophrasti
How it was run: (§1)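 Greenhouse pots of sandy loam held seeds covered with soil, onto which the compound was applied before emergence. An aqueous suspension or emulsion of WP or EC was used at 600 to 800 l/ha with 0.2% wetting agent. Percent damage was judged visually at 3 weeks.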

ALOMY [2] = test: Pre-emergence herbicidal action against ALOMY; assay type: in vivo, Alopecurus myosuroides
How it was run: as §1

AMARE [3] = test: Pre-emergence herbicidal action against AMARE; assay type: in vivo, Amaranthus retroflexus
How it was run: as §1

AVEFA [4] = test: Pre-emergence herbicidal action against AVEFA; assay type: in vivo, Avena fatua
How it was run: as §1

ECHCG [5] = test: Pre-emergence herbicidal action against ECHCG; assay type: in vivo, Echinochloa crus-galli; details: 80 g/ha
How it was run: as §1

LOLRI = test: Pre-emergence herbicidal action against LOLRI; assay type: in vivo, Lolium rigidum; details: 80 g/ha
How it was run: as §1

MATIN = test: Pre-emergence herbicidal action against MATIN; assay type: in vivo, Matricaria inodora
How it was run: as §1

PHBPU [6] = test: Pre-emergence herbicidal action against PHBPU; assay type: in vivo, Pharbitis purpurea
How it was run: as §1

POLCO [7] = test: Pre-emergence herbicidal action against POLCO; assay type: in vivo, Polygonum convolvulus; details: dosage 80 g/ha
How it was run: as §1

SETVI [8] = test: Pre-emergence herbicidal action against SETVI; assay type: in vivo, Setaria viridis
How it was run: as §1

VIOTR [9] = test: Pre-emergence herbicidal action against VIOTR; assay type: in vivo, Viola tricolor
How it was run: as §1

DIGSA [10] = test: Pre-emergence herbicidal action against DIGSA; assay type: in vivo, Digitaria sanguinalis
How it was run: as §1

ABUTH [11] = test: Post-emergence herbicidal action against ABUTH; assay type: in vivo, Abutilon theophrasti; details: dosage 20 g/ha, visual assessment about 3 weeks after treatment vs untreated controls
How it was run: (§2)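 A WP or EC formulation diluted in water with 0.2% wetting agent was sprayed at 600 to 800 l/ha onto one-leaf-stage plants grown in sandy loam. About 3 weeks later, action was rated visually in percent, 100% being dead plants.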

ALOMY [12] = test: Post-emergence herbicidal action against ALOMY; assay type: in vivo, Alopecurus myosuroides; details: visual assessment about 3 weeks after treatment vs untreated controls
How it was run: as §2

AMARE [13] = test: Post-emergence herbicidal action against AMARE; assay type: in vivo, Amaranthus retroflexus; details: 20 g/ha, visual assessment about 3 weeks after treatment, 100% = plants have died, 0% = like control plants
How it was run: as §2

AVEFA [14] = test: Post-emergence herbicidal action against AVEFA; assay type: in vivo, Avena fatua; details: 20 g/ha, visual assessment about 3 weeks after treatment, 100% = plants have died, 0% = like control plants
How it was run: as §2

ECHCG [15] = test: Post-emergence herbicidal action against ECHCG; assay type: in vivo, Echinochloa crus-galli
How it was run: as §2

PHBPU [16] = test: Post-emergence herbicidal action against PHBPU; assay type: in vivo, Pharbitis purpurea
How it was run: as §2

POLCO [17] = test: Post-emergence herbicidal action against POLCO; assay type: in vivo, Polygonum convolvulus; details: dosage 20 g/ha
How it was run: as §2

SETVI [18] = test: Post-emergence herbicidal action against SETVI; assay type: in vivo, Setaria viridis
How it was run: as §2

VERPE = test: Post-emergence herbicidal action against VERPE; assay type: in vivo, Veronica persica; details: 20 g/ha
How it was run: as §2

VIOTR [19] = test: Post-emergence herbicidal action against VIOTR; assay type: in vivo, Viola tricolor
How it was run: as §2

DIGSA [20] = test: Post-emergence herbicidal action against DIGSA; assay type: in vivo, Digitaria sanguinalis
How it was run: as §2

[21] = 80 g/ha, scored visually after 3 weeks vs untreated controls (100% = plants have died, 0% = like control plants)
[22] = 20 g/ha, scored visually after 3 weeks, 100% = plants have died, 0% = like control plants

## Cn1nnnc1NC(=O)c1ccc(C(F)(F)F)c(C(=O)NCC(F)F)c1Br [Example 1-212]
ABUTH [1]; [21]
  Pre-emergence action against ABUTH (herbicidal activity): 100%
ABUTH [1]; dosage 20 g/ha, scored visually after 3 weeks vs untreated controls, 100% = plants have died, 0% = like control plants
  Pre-emergence action against ABUTH (herbicidal activity in percent): 80%
ALOMY [2]; [22]
  Pre-emergence action against ALOMY: 100%
ALOMY [2]; 80 g/ha, pre-emergence, scored visually after 3 weeks vs untreated controls (100% = plants have died, 0% = like control plants)
  Pre-emergence action against ALOMY (herbicidal activity): 100%
AMARE [3]; 20 g/ha, scored visually after 3 weeks vs untreated controls, 100% = plants have died, 0% = like control plants
  Pre-emergence action against AMARE in %: 100%
AMARE [3]; [21]
  Pre-emergence action against AMARE in %: 100%
AVEFA [4]; [22]
  Pre-emergence action against AVEFA: 80%
AVEFA [4]; 80 g/ha, pre-emergence
  Pre-emergence action against AVEFA in %: 90%
ECHCG [5]
  Pre-emergence action against ECHCG in %: 100%
LOLRI
  Pre-emergence action against LOLRI in %: 80%
MATIN; dosage 20 g/ha
  Pre-emergence action against MATIN in %: 90%
MATIN; dosage 80 g/ha
  Pre-emergence action against MATIN in %: 100%
PHBPU [6]; dosage 20 g/ha
  Pre-emergence action against PHBPU in %: 80%
PHBPU [6]; dosage 80 g/ha
  Pre-emergence action against PHBPU in %: 80%
POLCO [7]
  Pre-emergence action against POLCO in %: 80%
SETVI [8]; dosage 20 g/ha
  Pre-emergence action against SETVI in %: 80%
SETVI [8]; dosage 80 g/ha
  Pre-emergence action against SETVI in %: 100%
VIOTR [9]; dosage 20 g/ha
  Pre-emergence action against VIOTR in %: 100%
VIOTR [9]; dosage 80 g/ha
  Pre-emergence action against VIOTR in %: 100%
DIGSA [10]; dosage 20 g/ha
  Pre-emergence action against DIGSA in %: 100%
DIGSA [10]; dosage 80 g/ha
  Pre-emergence action against DIGSA in %: 100%
ABUTH [11]
  Post-emergence action against ABUTH in %: 80%
ALOMY [12]; dosage 5 g/ha
  Post-emergence action against ALOMY in %: 80%
ALOMY [12]; dosage 20 g/ha
  Post-emergence action against ALOMY in %: 90%
AMARE [13]
  Post-emergence action at 20 g/ha against AMARE in %: 100%
AVEFA [14]
  Post-emergence action at 20 g/ha against AVEFA in %: 80%
ECHCG [15]; dosage 5 g/ha
  Post-emergence action against ECHCG in %: 80%
ECHCG [15]; dosage 20 g/ha
  Post-emergence action against ECHCG in %: 80%
PHBPU [16]; dosage 5 g/ha
  Post-emergence action against PHBPU in %: 80%
PHBPU [16]; dosage 20 g/ha
  Post-emergence action against PHBPU in %: 90%
POLCO [17]
  Post-emergence action against POLCO in %: 100%
SETVI [18]; dosage 5 g/ha
  Post-emergence action against SETVI in %: 80%
SETVI [18]; dosage 20 g/ha
  Post-emergence action against SETVI in %: 90%
VERPE
  Post-emergence action against VERPE in %: 80%
VIOTR [19]; 5 g/ha
  Post-emergence action against VIOTR in %: 80%
VIOTR [19]; 20 g/ha
  Post-emergence action against VIOTR in %: 90%
DIGSA [20]; 5 g/ha
  Post-emergence action against DIGSA in %: 90%
DIGSA [20]; 20 g/ha
  Post-emergence action against DIGSA: 100%
